# US20170211035A1, “BIOLOGICAL INDICATORS” (American Sterilizer Company, priority 2016, published 2017)
# System: Geobacillus stearothermophilus spores
# Assay: Steam resistance of biological indicators in the BIER vessel (kill kinetics, log population versus time)
# Format: cell-based
# Description: In the following examples, the test organism is prepared using a standard lot of Geobacillus stearothermophilus spores suspended in an aqueous carbohydrate solution. In these examples, xylose and dextrose are used as the carbohydrates. Comparative examples are also provided wherein the carbohydrate is not used. In each case, the aqueous suspension is placed in a vial and allowed to dry. The resulting biological indicators are resistance tested. The tests show an unexpected decrease in resistance when the biological indicators are derived from a carbohydrate solution as compared to when no carbohydrate is used.
# In these examples, the biological indicators are tested for resistance to steam sterilization using the biological indicator evaluation resistor (BIER) vessel depicted in FIG. 5A. Referring to FIG. 5A, BIER vessel 300 includes chamber 310, door 320, and interior shelf 330 for placement of the biological indicators. Steam, heat and pressure enters chamber 310 as indicated by arrow 340. Vent 350 is provided for the rapid release of steam, heat and pressure. Operation is controlled by a computerized processor, sensors, and valves designed to introduce rapid changes to the environment within the chamber 310.
# Referring to FIG. 5B, the process cycle used in the BIER vessel includes six phases, these phases being numbered as phases 1-6 in FIG. 5B. These phases can be described as follows:
# The term “log population” refers to the log of the number of colony-forming units (cfu) of viable spores in the test sample. For example, a log population of 6 refers to 10^6 (or 1,000,000) viable colony-forming units of spores in the test sample.
compound,measurement,setting,value
O=C[C@H](O)[C@@H](O)[C@H](O)CO [xylose],resistance (time),"steam at 121° C., spores dried from suspension in 0.5M carbohydrate solution",approximately 4 minutes
same,time for a 6 log reduction (kill kinetics),"steam at 121° C., spores dried from suspension in 1.67 M xylose solution",approximately 5 minutes
same,resistance (time),"steam at 132° C., spores dried from suspension in xylose solution as in Example 1 (1.67 M)",approximately 1.5 minutes
